Reference: publication PMC4833353 (PLoS Pathogens, 2016)
pKd: −log10 of the molar value.

Assays:
ET CTB [1] = molecular target: T1, ET CTB (Vibrio cholerae serotype O1, UniProt P01556); assay: biochemical; assay type: binding; conditions: for pKd: K D
ET CTB [2] = molecular target: T1, ET CTB; assay type: binding

T1 sequence (P01556 22-124 limits assumed): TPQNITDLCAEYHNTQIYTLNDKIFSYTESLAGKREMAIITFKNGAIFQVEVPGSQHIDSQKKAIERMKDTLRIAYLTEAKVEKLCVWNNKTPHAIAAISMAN

Compound	binding to CTB (ET CTB [1])	pKd (ET CTB [1])	binding of ET CTB to GM1-coated wells after preincubation with ligand (ET CTB [2])	binding affinity (in words) (ET CTB [1])
GalNAcα3[Fucα2]Galβ3[Fucα4]GlcNAc	very weak to no binding	–	–	–
CC(=O)N[C@H]1[C@@H](O[C@H]2[C@@H](O)[C@@H](CO)O[C@@H](O[C@H]3[C@H](O[C@@H]4O[C@@H](C)[C@@H](O)[C@@H](O)[C@@H]4O)[C@@H](O)[C@H](O)O[C@@H]3CO)[C@@H]2O[C@@H]2O[C@@H](C)[C@@H](O)[C@@H](O)[C@@H]2O)O[C@H](CO)[C@H](O)[C@@H]1O [A-penta-HMO, GalNAcα3[Fucα2]Galβ4[Fucα3]Glc]	–	2.34	interfered with binding of CTB to GM1	–
CC(=O)N[C@@H]1[C@@H](O[C@@H]2O[C@@H](C)[C@@H](O)[C@@H](O)[C@@H]2O)[C@H](O[C@@H]2O[C@H](CO)[C@H](O)[C@H](O[C@H]3O[C@H](CO)[C@H](O)[C@H](O)[C@H]3NC(C)=O)[C@H]2O[C@@H]2O[C@@H](C)[C@@H](O)[C@@H](O)[C@@H]2O)[C@@H](CO)O[C@H]1O [A-penta-BGA, GalNAcα3[Fucα2]Galβ4[Fucα3]GlcNAc]	–	< 1.52	–	binding very weakly
